From patent US9145373B2, “Certain kynurenine-3-monooxygenase inhibitors, pharmaceutical compositions, and methods of use thereof” (CHDI FOUNDATION, INC., priority 2008, dated 2015)
Counter-ions that a name gives are not always drawn.

The compounds below were run against T1, KMO mouse enzyme (Mus musculus, UniProt Q91WN4) (assay: KMO mouse enzyme assay: L-Kynurenine hydroxylation to 3-Hydroxy-Kynurenine monitored by LC/MS (MRM)). Conditions: compound at 10 μM; KMO enzyme from mouse liver mitochondria.
T1 construct: KMO enzyme prepared at Evotec from mouse liver (4-6 weeks old) via mitochondria isolation; from tissue; host or cells: mouse liver (4-6 weeks old), mitochondria isolation, prepared at Evotec
Format: biochemical
Experimental: A method of monitoring L-Kynurenine (KYN) hydroxylation to form 3-Hydroxy-Kynurenine (3OH-KYN) by LC/MS is described. Product is quantified by multiple reaction monitoring (MRM method).
• Compound: Stock concentrations: 10 mM in 100% DMSO • Enzyme: KMO enzyme prepared at Evotec from mouse liver (4-6 weeks old) via mitochondria isolation as described in the literature • Substrate: L-Kynurenine (Sigma: Cat# K3750, stock concentration: 10 mM in 100 mM potassium phosphate buffer, pH 7.4) Assay Conditions: […]

T1 sequence (Q91WN4 whole entry): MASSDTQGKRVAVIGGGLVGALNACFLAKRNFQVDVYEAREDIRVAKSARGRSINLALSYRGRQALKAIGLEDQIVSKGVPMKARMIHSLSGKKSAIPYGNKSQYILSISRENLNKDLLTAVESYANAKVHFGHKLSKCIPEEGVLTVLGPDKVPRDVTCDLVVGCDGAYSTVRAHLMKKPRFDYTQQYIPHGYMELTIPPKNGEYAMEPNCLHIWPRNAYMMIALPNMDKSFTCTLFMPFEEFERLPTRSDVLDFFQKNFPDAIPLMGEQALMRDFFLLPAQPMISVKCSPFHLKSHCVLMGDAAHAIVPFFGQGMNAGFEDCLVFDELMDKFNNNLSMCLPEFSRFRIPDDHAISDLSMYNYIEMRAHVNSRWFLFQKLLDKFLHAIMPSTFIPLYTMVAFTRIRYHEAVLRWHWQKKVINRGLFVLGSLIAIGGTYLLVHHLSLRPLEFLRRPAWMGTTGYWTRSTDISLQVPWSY

SMILES	INH.Mouse @ 10 μM
Cl.O=C(O)c1cc(-c2cc(Cl)cc(Cl)c2)ccn1 [4-(3,5-Dichloro-phenyl)-pyridine-2-carboxylic acid hydrocloride salt]	76.6
Cc1ccc(NC(=O)c2cc(-c3ccc(Cl)c(Cl)c3)ncn2)cn1.Cl [6-(3,4-Dichloro-phenyl)-pyrimidine-4-carboxylic acid (6-methyl-pyridin-3-yl)-amide hydrochloride salt]	94.0

Same assay, conditions: compound at 10 μM; KMO enzyme from mouse liver mitochondria; read-out: INH.Mouse @ 10 μM

SMILES	inhibition at 10 µM [%]
CC(=O)N1CCN(C(=O)c2cc(-c3cccc(Cl)c3)ncn2)CC1 [1-{4-[6-(3-Chloro-phenyl)-pyrimidine-4-carbonyl]-piperazin-1-yl}-ethanone]	94.9
O=C(O)c1ccnc(-c2cccc(Cl)c2)c1 [2-(3-Chloro-phenyl)-isonicotinic acid hydrochloride salt]	53.5
O=C(Nc1ccccc1)c1cc(-c2ccc(Cl)c(Cl)c2)ccn1 [4-(3,4-Dichloro-phenyl)-pyridine-2-carboxylic acid phenylamide]	43.5
COc1cncc(NC(=O)c2cc(-c3cc(Cl)cc(Cl)c3)ccn2)c1 [4-(3,5-Dichloro-phenyl)-pyridine-2-carboxylic acid (5-methoxy-pyridin-3-yl)-amide]	52.6
O=C(Nc1ccccc1)c1cc(-c2cc(Cl)cc(Cl)c2)ccn1 [4-(3,5-Dichloro-phenyl)-pyridine-2-carboxylic acid phenylamide]	59.7
COc1cncc(NC(=O)c2cc(-c3cccc(Cl)c3)ccn2)c1 [4-(3-Chloro-phenyl)-pyridine-2-carboxylic acid (5-methoxy-pyridin-3-yl)-amide]	53.8
COC(=O)c1cc(-c2cccc(Cl)c2)ccn1 [4-(3-Chloro-phenyl)-pyridine-2-carboxylic acid methyl ester]	100
Cc1ccc(NC(=O)c2cc(-c3cccc(Cl)c3)ccn2)cc1 [4-(3-Chloro-phenyl)-pyridine-2-carboxylic acid p-tolylamide]	85.6
O=C(Nc1ccccc1)c1cc(-c2cccc(Cl)c2)ccn1 [4-(3-Chloro-phenyl)-pyridine-2-carboxylic acid phenylamide]	68.4
O=C(Nc1cccnc1)c1cc(-c2cccc(Cl)c2)ccn1 [4-(3-Chloro-phenyl)-pyridine-2-carboxylic acid pyridin-3-ylamide]	52.3
O=C(Nc1cncnc1)c1cc(-c2cccc(Cl)c2)ccn1 [4-(3-Chloro-phenyl)-pyridine-2-carboxylic acid pyrimidin-5-ylamide]	60.8
O=C(O)c1cc(-c2cccc(Cl)c2)ccn1 [4-(3-Chloro-phenyl)-pyridine-2-carboxylic acid]	100
O=C1CN(C(=O)c2cc(-c3cccc(Cl)c3)ncn2)CCN1 [4-[6-(3-Chloro-phenyl)-pyrimidine-4-carbonyl]-piperazin-2-one]	100
COC(=O)c1cc(-c2ccc(F)cc2F)ncn1 [6-(2,4-Difluoro-phenyl)-pyrimidine-4-carboxylic acid methyl ester]	100
O=C(O)c1cc(-c2cc(C(F)(F)F)ccc2F)ncn1 [6-(2-Fluoro-5-trifluoromethyl-phenyl)-pyrimidine-4-carboxylic acid]	80.3
COC(=O)c1cc(-c2ccc(Cl)c(Cl)c2)nc(C)n1 [6-(3,4-Dichloro-phenyl)-2-methyl-pyrimidine-4-carboxylic acid methyl ester]	95.5
COC(=O)c1ncnc(-c2ccc(Cl)c(Cl)c2)c1F [6-(3,4-Dichloro-phenyl)-5-fluoro-pyrimidine-4-carboxylic acid methyl ester]	100
Cn1cc(NC(=O)c2cc(-c3ccc(Cl)c(Cl)c3)ncn2)cn1 [6-(3,4-Dichloro-phenyl)-pyrimidine-4-carboxylic acid (1-methyl-1H-pyrazol-4-yl)-amide]	100
Cc1ccc(NC(=O)c2cc(-c3ccc(Cl)c(Cl)c3)ncn2)c(C)n1 [6-(3,4-Dichloro-phenyl)-pyrimidine-4-carboxylic acid (2,6-dimethyl-pyridin-3-yl)-amide]	96.8
Cc1ncccc1NC(=O)c1cc(-c2ccc(Cl)c(Cl)c2)ncn1 [6-(3,4-Dichloro-phenyl)-pyrimidine-4-carboxylic acid (2-methyl-pyridin-3-yl)-amide]	84.2
Cc1ncc(NC(=O)c2cc(-c3ccc(Cl)c(Cl)c3)ncn2)cn1 [6-(3,4-Dichloro-phenyl)-pyrimidine-4-carboxylic acid (2-methyl-pyrimidin-5-yl)-amide]	85.6
Cc1cc(NC(=O)c2cc(-c3ccc(Cl)c(Cl)c3)ncn2)on1 [6-(3,4-Dichloro-phenyl)-pyrimidine-4-carboxylic acid (3-methyl-isoxazol-5-yl)-amide]	100
COc1cncc(NC(=O)c2cc(-c3ccc(Cl)c(Cl)c3)ncn2)c1 [6-(3,4-Dichloro-phenyl)-pyrimidine-4-carboxylic acid (5-methoxy-pyridin-3-yl)-amide]	100

SMILES	inhibition at 10 µM [%]
Cc1nnc(NC(=O)c2cc(-c3ccc(Cl)c(Cl)c3)ncn2)o1 [6-(3,4-Dichloro-phenyl)-pyrimidine-4-carboxylic acid (5-methyl-[1,3,4]oxadiazol-2-yl)-amide]	100
Cc1ccc(NC(=O)c2cc(-c3ccc(Cl)c(Cl)c3)ncn2)cn1 [6-(3,4-Dichloro-phenyl)-pyrimidine-4-carboxylic acid (6-methyl-pyridin-3-yl)-amide]	100
O=C(NCc1ccncc1)c1cc(-c2ccc(Cl)c(Cl)c2)ncn1 [6-(3,4-Dichloro-phenyl)-pyrimidine-4-carboxylic acid (pyridin-4-ylmethyl)-amide]	95.5
O=C(Nc1nncs1)c1cc(-c2ccc(Cl)c(Cl)c2)ncn1 [6-(3,4-Dichloro-phenyl)-pyrimidine-4-carboxylic acid [1,3,4]thiadiazol-2-ylamide]	100
O=C(Nc1ccon1)c1cc(-c2ccc(Cl)c(Cl)c2)ncn1 [6-(3,4-Dichloro-phenyl)-pyrimidine-4-carboxylic acid isoxazol-3-ylamide]	100
COC(=O)c1cc(-c2ccc(Cl)c(Cl)c2)ncn1 [6-(3,4-Dichloro-phenyl)-pyrimidine-4-carboxylic acid methyl ester]	101
Cc1ccc(NC(=O)c2cc(-c3ccc(Cl)c(Cl)c3)ncn2)cc1 [6-(3,4-Dichloro-phenyl)-pyrimidine-4-carboxylic acid p-tolylamide]	100
O=C(Nc1ccccn1)c1cc(-c2ccc(Cl)c(Cl)c2)ncn1 [6-(3,4-Dichloro-phenyl)-pyrimidine-4-carboxylic acid pyridin-2-ylamide]	100
O=C(Nc1cccnc1)c1cc(-c2ccc(Cl)c(Cl)c2)ncn1 [6-(3,4-Dichloro-phenyl)-pyrimidine-4-carboxylic acid pyridin-3-ylamide]	83.5
O=C(Nc1ccncc1)c1cc(-c2ccc(Cl)c(Cl)c2)ncn1 [6-(3,4-Dichloro-phenyl)-pyrimidine-4-carboxylic acid pyridin-4-ylamide]	90.1
O=C(Nc1cncnc1)c1cc(-c2ccc(Cl)c(Cl)c2)ncn1 [6-(3,4-Dichloro-phenyl)-pyrimidine-4-carboxylic acid pyrimidin-5-ylamide]	95.5
O=C(Nc1nccs1)c1cc(-c2ccc(Cl)c(Cl)c2)ncn1 [6-(3,4-Dichloro-phenyl)-pyrimidine-4-carboxylic acid thiazol-2-ylamide]	83.7
COC(=O)c1cc(-c2ccc(F)c(F)c2)ncn1 [6-(3,4-Difluoro-phenyl)-pyrimidine-4-carboxylic acid methyl ester]	100
O=C(Nc1cccnc1)c1cc(-c2ccc(F)c(F)c2)ncn1 [6-(3,4-Difluoro-phenyl)-pyrimidine-4-carboxylic acid pyridin-3-ylamide]	84.7
O=C(Nc1cncnc1)c1cc(-c2ccc(F)c(F)c2)ncn1 [6-(3,4-Difluoro-phenyl)-pyrimidine-4-carboxylic acid pyrimidin-5-ylamide]	100
COc1cncc(NC(=O)c2cc(-c3cc(Cl)cc(Cl)c3)ncn2)c1 [6-(3,5-Dichloro-phenyl)-pyrimidine-4-carboxylic acid (5-methoxy-pyridin-3-yl)-amide]	54.8
COC(=O)c1cc(-c2cc(Cl)cc(Cl)c2)ncn1 [6-(3,5-Dichloro-phenyl)-pyrimidine-4-carboxylic acid methyl ester]	101
O=C(Nc1ccccc1)c1cc(-c2cc(Cl)cc(Cl)c2)ncn1 [6-(3,5-Dichloro-phenyl)-pyrimidine-4-carboxylic acid phenylamide]	77.6
O=C(Nc1cccnc1)c1cc(-c2cc(Cl)cc(Cl)c2)ncn1 [6-(3,5-Dichloro-phenyl)-pyrimidine-4-carboxylic acid pyridin-3-ylamide]	72.2
COC(=O)c1cc(-c2cccc(Cl)c2F)ncn1 [6-(3-Chloro-2-fluoro-phenyl)-pyrimidine-4-carboxylic acid methyl ester]	100
COC(=O)c1cc(-c2ccc(F)c(Cl)c2)ncn1 [6-(3-Chloro-4-fluoro-phenyl)-pyrimidine-4-carboxylic acid methyl ester]	100
COC(=O)c1cc(-c2ccc(OC)c(Cl)c2)ncn1 [6-(3-Chloro-4-methoxy-phenyl)-pyrimidine-4-carboxylic acid methyl ester]	100
COC(=O)c1cc(-c2ccc(C(F)(F)F)c(Cl)c2)ncn1 [6-(3-Chloro-4-trifluoromethyl-phenyl)-pyrimidine-4-carboxylic acid methyl ester]	100
